Results taken from PubChem BioAssay AID1963871 (Molecular Pharmacology Branch, DTP, NCI, 2024).
pIC50: −log10 of the molar value.

System: KRAS-mutant PDC multicell tumor spheroid viability
Experiment: Anticancer human tumor 521955-158-R2-J5-PDC patient-derived pancreatic carcinoma cell line growth inhibition [KRAS2]
Conditions: for pIC50: curve of first compound; for viability, T/C: stronger effect = lower value; active means viability on the fitted dose curve at most 10% of control; inactive means the rest
Outline: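 KRAS-mutant tumor cells were grown as spheroids with HUVEC endothelial cells and human MSCs as stroma. Targeted agents were tested alone and with KRAS pathway inhibitors. Doses started at or near clinical Cmax, or 10 microM, descending half-log.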

[1] = second compound 0.1 µM, first compound 0.000316 µM
[2] = second compound 0.1 µM, first compound 0.001 µM
[3] = second compound 0.1 µM, first compound 0.00316 µM
[4] = second compound 0.1 µM, first compound 0.01 µM
[5] = second compound 0.1 µM, first compound 0.0316 µM
[6] = second compound 0.316 µM, first compound 0.000316 µM
[7] = second compound 0.316 µM, first compound 0.001 µM
[8] = second compound 0.316 µM, first compound 0.00316 µM
[9] = second compound 0.316 µM, first compound 0.01 µM
[10] = second compound 0.316 µM, first compound 0.0316 µM
[11] = second compound 1 µM, first compound 0.000316 µM
[12] = second compound 1 µM, first compound 0.001 µM
[13] = second compound 1 µM, first compound 0.00316 µM
[14] = second compound 1 µM, first compound 0.01 µM
[15] = second compound 1 µM, first compound 0.0316 µM
[16] = second compound 3.16 µM, first compound 0.000316 µM
[17] = second compound 3.16 µM, first compound 0.001 µM
[18] = second compound 3.16 µM, first compound 0.00316 µM
[19] = second compound 3.16 µM, first compound 0.01 µM
[20] = second compound 3.16 µM, first compound 0.0316 µM
[21] = second compound 10 µM, first compound 0.000316 µM
[22] = second compound 10 µM, first compound 0.001 µM
[23] = second compound 10 µM, first compound 0.00316 µM
[24] = second compound 10 µM, first compound 0.01 µM
[25] = second compound 10 µM, first compound 0.0316 µM
[26] = second compound 0.1 µM, first compound 0.1 µM
[27] = second compound 0.316 µM, first compound 0.1 µM
[28] = second compound 1 µM, first compound 0.1 µM
[29] = second compound 3.16 µM, first compound 0.1 µM
[30] = second compound 10 µM, first compound 0.1 µM
[31] = second compound 0.1 µM, first compound 0.316 µM
[32] = second compound 0.1 µM, first compound 1 µM
[33] = second compound 0.1 µM, first compound 3.16 µM
[34] = second compound 0.1 µM, first compound 10 µM
[35] = second compound 0.316 µM, first compound 0.316 µM
[36] = second compound 0.316 µM, first compound 1 µM
[37] = second compound 0.316 µM, first compound 3.16 µM
[38] = second compound 0.316 µM, first compound 10 µM
[39] = second compound 1 µM, first compound 0.316 µM
[40] = second compound 1 µM, first compound 1 µM
[41] = second compound 1 µM, first compound 3.16 µM
[42] = second compound 1 µM, first compound 10 µM
[43] = second compound 3.16 µM, first compound 0.316 µM
[44] = second compound 3.16 µM, first compound 1 µM
[45] = second compound 3.16 µM, first compound 3.16 µM
[46] = second compound 3.16 µM, first compound 10 µM
[47] = second compound 10 µM, first compound 0.316 µM
[48] = second compound 10 µM, first compound 1 µM
[49] = second compound 10 µM, first compound 3.16 µM
[50] = second compound 10 µM, first compound 10 µM
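Further: viability read after seven days of drug exposure.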

CC(=O)Nc1cccc(-n2c(=O)n(C3CC3)c(=O)c3c(Nc4ccc(I)cc4F)n(C)c(=O)c(C)c32)c1 + CC1OCC2(CCN(c3cnc(Sc4ccnc(N)c4Cl)c(N)n3)CC2)C1N
active: viability, T/C [15] 9.6%
inactive: viability, T/C (second compound 0.1 µM, first compound 0.0001 µM) 59% | viability, T/C [1] 29.4% | viability, T/C [2] 29.3% | viability, T/C [3] 25.3% | viability, T/C [4] 21.4% | viability, T/C [5] 13.1% | viability, T/C (second compound 0.316 µM, first compound 0.0001 µM) 44.9% | viability, T/C [6] 32.9% | viability, T/C [7] 25.4% | viability, T/C [8] 22.7% | viability, T/C [9] 18.1% | viability, T/C [10] 12.4% | viability, T/C (second compound 1 µM, first compound 0.0001 µM) 40.3% | viability, T/C [11] 35.8% | viability, T/C [12] 26.9% | viability, T/C [13] 24.2% | viability, T/C [14] 16.8% | viability, T/C (second compound 3.16 µM, first compound 0.0001 µM) 40.9% | viability, T/C [16] 32.5% | viability, T/C [17] 25.2% | viability, T/C [18] 21.1% | viability, T/C [19] 15.3% | viability, T/C [20] 12.7% | viability, T/C (second compound 10 µM, first compound 0.0001 µM) 39.9% | viability, T/C [21] 34% | viability, T/C [22] 23.3% | viability, T/C [23] 18.5% | viability, T/C [24] 15.1% | viability, T/C [25] 11.6%
> 10.00: pIC50 (second compound 0.316 µM) | pIC50 (second compound 1 µM) | pIC50 (second compound 3.16 µM) | pIC50 (second compound 10 µM)
9.84: pIC50 (second compound 0.1 µM)

CN(C)C/C=C/C(=O)Nc1cc2c(Nc3ccc(F)c(Cl)c3)ncnc2cc1O[C@H]1CCOC1 + CC1OCC2(CCN(c3cnc(Sc4ccnc(N)c4Cl)c(N)n3)CC2)C1N
> 9.50: pIC50 (second compound 3.16 µM)
< 7.00: pIC50 (second compound 0.1 µM) | pIC50 (second compound 0.316 µM) | pIC50 (second compound 1 µM) | pIC50 (second compound 10 µM)
inactive: viability, T/C [1] 71.7% | viability, T/C [2] 66.5% | viability, T/C [3] 56.3% | viability, T/C [4] 73.4% | viability, T/C [5] 81.9% | viability, T/C [26] 59.3% | viability, T/C [6] 60.5% | viability, T/C [7] 70.3% | viability, T/C [8] 57.3% | viability, T/C [9] 57.6% | viability, T/C [10] 63.5% | viability, T/C [27] 58.2% | viability, T/C [11] 112% | viability, T/C [12] 107% | viability, T/C [13] 85.3% | viability, T/C [14] 75.5% | viability, T/C [15] 78.6% | viability, T/C [28] 73.1% | viability, T/C [16] 28% | viability, T/C [17] 37% | viability, T/C [18] 37.2% | viability, T/C [19] 49% | viability, T/C [20] 65.2% | viability, T/C [29] 64.5% | viability, T/C [21] 105% | viability, T/C [22] 90% | viability, T/C [23] 85.8% | viability, T/C [24] 79.9% | viability, T/C [25] 80.8% | viability, T/C [30] 80.3%

COC(=O)c1ccc2c(C(=Nc3ccc(N(C)C(=O)CN4CCN(C)CC4)cc3)c3ccccc3)c(O)[nH]c2c1 + CC1OCC2(CCN(c3cnc(Sc4ccnc(N)c4Cl)c(N)n3)CC2)C1N
inactive: viability, T/C [5] 79.4% | viability, T/C [26] 80.7% | viability, T/C [31] 72.9% | viability, T/C [32] 80.8% | viability, T/C [33] 42.5% | viability, T/C [10] 66.3% | viability, T/C [27] 70.5% | viability, T/C [35] 60% | viability, T/C [36] 85.4% | viability, T/C [37] 30.1% | viability, T/C [15] 46.8% | viability, T/C [28] 46.7% | viability, T/C [39] 55.9% | viability, T/C [40] 57% | viability, T/C [41] 26.6% | viability, T/C [20] 56% | viability, T/C [29] 58.6% | viability, T/C [43] 58% | viability, T/C [44] 51.7% | viability, T/C [45] 23.2% | viability, T/C [25] 61.1% | viability, T/C [30] 58.3% | viability, T/C [47] 64.3% | viability, T/C [48] 55.4%
5.97: pIC50 (second compound 1 µM) | pIC50 (second compound 3.16 µM)
5.95: pIC50 (second compound 10 µM)
active: viability, T/C [34] 0.38% | viability, T/C [38] 0.37% | viability, T/C [42] 0.4% | viability, T/C [46] 0.51% | viability, T/C [49] 0.64% | viability, T/C [50] 0.38%
5.74: pIC50 (second compound 0.316 µM)
5.60: pIC50 (second compound 0.1 µM)

O=C(c1cc(Cc2n[nH]c(=O)c3ccccc23)ccc1F)N1CCN(C(=O)C2CC2)CC1 + CC1OCC2(CCN(c3cnc(Sc4ccnc(N)c4Cl)c(N)n3)CC2)C1N
inactive: viability, T/C [5] 67.2% | viability, T/C [26] 71.2% | viability, T/C [31] 57.2% | viability, T/C [32] 55% | viability, T/C [33] 53.3% | viability, T/C [34] 58% | viability, T/C [10] 48.7% | viability, T/C [27] 48.6% | viability, T/C [35] 46.8% | viability, T/C [36] 49.1% | viability, T/C [37] 49.8% | viability, T/C [38] 40.2% | viability, T/C [15] 106% | viability, T/C [28] 118% | viability, T/C [39] 92.3% | viability, T/C [40] 83.9% | viability, T/C [41] 74.1% | viability, T/C [42] 56.8% | viability, T/C [20] 30.4% | viability, T/C [29] 35.5% | viability, T/C [43] 37.9% | viability, T/C [44] 35.9% | viability, T/C [45] 38.6% | viability, T/C [46] 33.6% | viability, T/C [25] 43.2% | viability, T/C [30] 44.3% | viability, T/C [47] 86.8% | viability, T/C [48] 46.9% | viability, T/C [49] 44% | viability, T/C [50] 39.3%
< 5.00: pIC50 (second compound 0.1 µM) | pIC50 (second compound 1 µM)
6.14: pIC50 (second compound 10 µM)
> 7.50: pIC50 (second compound 0.316 µM) | pIC50 (second compound 3.16 µM)
